Measured values reported in article PMC10119282, “Molecular characterization of AIFM2/FSP1 inhibition by iFSP1-like molecules” (Cell Death & Disease, 2023).
pKi: −log10 of the molar value.

Tests used:
hFSP1 WT = molecular target: T1, hFSP1 WT (Homo sapiens, UniProt Q9BRQ8); test: Competition MST against pre-formed complex of hFSP1 WT and FSP1-Tracer; type: binding
T1 construct: HisSUMO (cleaved yes); made in house; host or cells: E. coli BL21
T1 sequence (Q9BRQ8 1-373): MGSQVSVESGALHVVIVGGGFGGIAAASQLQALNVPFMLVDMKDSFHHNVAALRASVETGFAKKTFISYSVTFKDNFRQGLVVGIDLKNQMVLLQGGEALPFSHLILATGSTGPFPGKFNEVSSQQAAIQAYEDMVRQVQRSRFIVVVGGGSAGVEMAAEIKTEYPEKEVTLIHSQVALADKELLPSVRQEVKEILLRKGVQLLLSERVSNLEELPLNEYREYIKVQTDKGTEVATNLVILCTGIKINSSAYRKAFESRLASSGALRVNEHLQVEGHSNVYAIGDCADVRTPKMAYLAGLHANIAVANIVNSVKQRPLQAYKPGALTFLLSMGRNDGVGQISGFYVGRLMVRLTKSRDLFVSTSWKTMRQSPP
Description: FSP1 (human isoform 1, UniProt Q9BRQ8-1) WT (hFSP1 WT) and F360L (hFSP1 F360L) were expressed in E.coli BL21 as HisSUMO fusion protein. Cells were grown in lysogeny broth medium at 18 °C and induced with 0.5 mM isopropyl-β-thiogalactoside at a cell density A600 of 0.6. Cells were collected after overnight expression by centrifugation, resuspended in lysis buffer ([…], 50 mM Tris-HCl pH 8, 1 mM TCEP, 20 mM imidazole, protease inhibitor, DNase) and lysed by sonication. Cell debris was removed by centrifugation (30,000 × g) at 4 °C for 30 min, after which an IMAC purification was performed. Briefly, a HisTrap crude FF (5 mL) column was equilibrated to lysis buffer, lysates were loaded via the sample pump and the column was then washed with 50 mL lysis buffer. During the elution with a gradient to 100% IMAC elution buffer (300 mM NaCl, 50 mM Tris-HCl pH 8, 1 mM TCEP, 400 mM imidazole) over 100 mL, 5 mL fractions were collected. The pooled fractions were dialysed overnight in the presence of SenP2 SUMO protease at a ratio of 40:1 FSP1:SenP2. Afterwards, a reverse IMAC purification was performed on a HisTrap crude FF (5 mL) column. IMAC eluates were analysed by SDS PAGE and concentrated to 15 mL (hFSP1 WT) and 5 mL (hFSP1 F360L), respectively. […] Pure fractions were pooled (C12—D11 for hFSP1 WT and C7—D4 for hFSP1 F360L), analysed by SDS-PAGE (Supplementary Fig. 4) and concentrated to 5.8 mL at 285.9 µM (hFSP1 WT) and 1.2 mL at 269.5 µM (FSP1 F360L), flash frozen in liquid N2 and stored at −80 °C.
An MST buffer consisting of 1× phosphate-buffered saline (PBS; 137 mM NaCl, 2.7 mM KCl, 10 mM Na2HPO4, 1.8 mM KH2PO4, pH 7.4) with 2 mM reduced L-Glutathione (GSH, Sigma Aldrich, product number G4251) and 0.05% (v/v) Tween 20 (ITW Reagents, molecular biology grade, product number A4974) was used for all MST measurements. […] KD values were determined by applying a Hill-fit to a plot of Fnorm vs. hFSP1 WT/F360L concentration. […]

[1] = system: Pfa1 Gpx4−/− overexpressing mFSP1 L360F; test: Cell viability (Alamar blue), mFSP1 L360F; type: cell-based, murine
Description: (§1) Cell Lines. 4-hydroxytamoxifen (TAM)-inducible Gpx4^−/− murine immortalized fibroblasts (Pfa1) were reported previously. These cells harbor two loxP-flanked Gpx4 alleles and stably express TAM inducible Cre recombinase allowing the genetic deletion of Gpx4 at will. For all experiments using Gpx4^−/− the well were treated with 4-hydroxitamoxifen (TAM) 1 µM. All cells were cultured with were cultured in DMEM-high glucose (4.5 g glucose/L) with 10% fetal bovine serum (FBS), Glutamax, and 1% penicillin/streptomycin (Gibco, Thermo Fischer) at 37 °C with 5% CO2 and verified to be negative for mycoplasma.
(§2) Cell viability assays. Alamar Blue method: Cells were seeded on 96-well plates (2000 cells per well) and treated with the compounds RSL3, iFSP1 and (liproxstatin-1) after plating. Cell viability was assessed 48 h (unless stated otherwise) after treatment using Alamar Blue as an indicator of viable cells. Alamar blue solution was made by dissolving of 1 g resazurin sodium salt (Thermo Fischer) in 200 mL sterile PBS and sterile filtrated through a 0.22 µm filter. Stock solutions were stored at 4 °C. The working solution was made freshly by adding 200 µL of the stock solution to 25 mL growth media. After 2–4 h incubation time, viability was estimated by measuring the fluorescence using a 540/35 excitation filter and a 590/20 emission on a Spark® microplate reader (Tecan, Zürich, Switzerland).

[2] = system: Pfa1 Gpx4−/− overexpressing hFSP1 F360L; test: Cell viability (Alamar blue), hFSP1 F360L; type: cell-based, murine
Description: as §1, §2

[3] = Mus musculus, x axis iFSP1 (μM), read-out: IC50 (dose-response toxicity)

## Cc1ccc(-c2c(C#N)c(N)n3c(nc4ccccc43)c2C#N)cc1 [iFSP1]
hFSP1 WT; hFSP1 WT 5 µM and FSP1-Tracer 5 nM pre-formed complex
  pKi: 7.21
hFSP1 WT; iFSP1 Ki versus NADH Ki
  higher binding affinity to hFSP1 than NADH: 7.4 fold
[1]
  iFSP1-mediated inhibition of FSP1 (ferroptosis induction): restored the iFSP1-mediated inhibition of mFSP1
[1]; [3]
  IC50: 0.95 µM
[2]
  capacity to induce ferroptosis: completely abolished the capacity of iFSP1 to induce ferroptosis
[2]; [3]
  IC50: 6.18 µM
